US12202828B2, “Bicyclic heterocycle compounds and their uses in therapy” (ASTEX THERAPEUTICS LIMITED, priority 2013, dated 2025)
“And” between values parts separate entries of the source, which are not always exact repeats. Identical values can stand only once. Counter-ions that a name gives are not always drawn.

How the values were obtained:
[1] = molecular target: T1, XIAP-Caspase-9 in HEK293-XIAP-Caspase-9 cells (Homo sapiens, UniProt P98170); test: HEK293-XIAP-Caspase-9 immunoprecipitation (IP) MSD assay; assay type: cell-based; conditions: compound 2 h at 37° C.; read-out: HEK293-X-C9 IP
T1 construct: FLAG; expressed in transfected cells
Protocol: Stable HEK293-XIAP-Caspase-9 cells were plated out into 96-well plates [200 μl/well at 1×10^6 cells/mL in cultured complete medium (DMEM+10% FBS+0.5 mg/mL Geneticin (Invitrogen)] and left overnight at 37° C. to recover. Compounds were added to duplicate wells in 0.1% DMSO for 2 h at 37° C. Cells were lysed in 50 μl 1×MSD lysis buffer (1% Triton X-100 in 20 mM Tris·Cl (pH 7.6), 150 mM NaCl including protease inhibitors) for 20 min rocking at room temperature. Streptavidin high bind MSD plate (L15SB-2) were coated with biotinylated anti-FLAG M2 antibody (Sigma F9291) at 25 μl/well with a 5 μg/mL dilution of antibody in PBS for 1 h, shaking; followed by blocking for 1 h with 150 μl 3% BSA/TBST. Cell lysate (25 μl) was added to the 96-well anti-FLAG coated MSD plate and placed on shaker for 4 h at room temperature. […] Plates were washed 4 times with 150 μl TBST, and 150 μl/well 1×MSD read buffer (R92TC-2) added before reading each plate.
EC50 values were determined from dose-response plots using nonlinear least-squares analysis.

hERG ion channel = molecular target: T2, hERG ion channel (Homo sapiens, UniProt Q12809); test: Population Patch Clamp (PPC) hERG assay in CHO K1 cells; assay type: cell-based
T2 construct: expressed in transfected cells; host or cells: CHO K1
Protocol: Inhibition of the hERG channel was measured by automated patch clamp assay in CHO K1 cells, stably transfected with the hERG ion channel. PPC measurements were performed using an IonWorks Quattro instrument (Molecular Devices Corporation, Union City, CA) using a 384 well PatchPlate (Molecular Devices Corporation) with 64 apertures per well. Each concentration of test compound was tested in duplicate wells. Amphotericin B was used to obtain electrical access to the cell interior at a final concentration of 200 μg/mL. Human ether-à-gogo related gene (hERG) currents were measured with a prepulse to +40 mV (2 s) from the holding potential of −80 mV, followed by a step to −50 mV (2 s) to elicit the deactivating tail currents, before returning to the holding potential for 1s. Compounds were incubated for 600s between the pre- and post-compound reads. The external recording solution used was 130 mM Na Gluconate, 20 mM NaCl, 4 mM KCl, 1 mM MgCl2, 1.8 mM CaCl2, 10 mM Hepes, 5 mM Glucose, pH to 7.3 with NaOH. All data were filtered for seal quality, seal drop, and current amplitude. The maximum current amplitude of the 3rd pulse tail current was calculated before (Pre) and after (Post) compound addition and the amount of block assessed by dividing the Post-compound current amplitude by the Pre-compound current amplitude.

T1 sequence (P98170 whole entry): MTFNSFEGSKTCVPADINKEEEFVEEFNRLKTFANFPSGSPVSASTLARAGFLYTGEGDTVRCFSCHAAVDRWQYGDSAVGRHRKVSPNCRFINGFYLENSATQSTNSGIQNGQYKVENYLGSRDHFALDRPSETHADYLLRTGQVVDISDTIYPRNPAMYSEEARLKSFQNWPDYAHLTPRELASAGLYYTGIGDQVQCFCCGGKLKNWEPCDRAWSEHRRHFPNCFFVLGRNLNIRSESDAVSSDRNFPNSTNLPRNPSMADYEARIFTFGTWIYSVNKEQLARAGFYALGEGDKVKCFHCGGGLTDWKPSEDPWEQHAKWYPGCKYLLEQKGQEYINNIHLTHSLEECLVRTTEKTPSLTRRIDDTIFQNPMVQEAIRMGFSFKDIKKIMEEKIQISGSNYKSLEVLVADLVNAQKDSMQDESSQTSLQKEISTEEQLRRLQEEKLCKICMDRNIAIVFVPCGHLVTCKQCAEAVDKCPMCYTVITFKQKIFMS
T2 sequence (Q12809 whole entry): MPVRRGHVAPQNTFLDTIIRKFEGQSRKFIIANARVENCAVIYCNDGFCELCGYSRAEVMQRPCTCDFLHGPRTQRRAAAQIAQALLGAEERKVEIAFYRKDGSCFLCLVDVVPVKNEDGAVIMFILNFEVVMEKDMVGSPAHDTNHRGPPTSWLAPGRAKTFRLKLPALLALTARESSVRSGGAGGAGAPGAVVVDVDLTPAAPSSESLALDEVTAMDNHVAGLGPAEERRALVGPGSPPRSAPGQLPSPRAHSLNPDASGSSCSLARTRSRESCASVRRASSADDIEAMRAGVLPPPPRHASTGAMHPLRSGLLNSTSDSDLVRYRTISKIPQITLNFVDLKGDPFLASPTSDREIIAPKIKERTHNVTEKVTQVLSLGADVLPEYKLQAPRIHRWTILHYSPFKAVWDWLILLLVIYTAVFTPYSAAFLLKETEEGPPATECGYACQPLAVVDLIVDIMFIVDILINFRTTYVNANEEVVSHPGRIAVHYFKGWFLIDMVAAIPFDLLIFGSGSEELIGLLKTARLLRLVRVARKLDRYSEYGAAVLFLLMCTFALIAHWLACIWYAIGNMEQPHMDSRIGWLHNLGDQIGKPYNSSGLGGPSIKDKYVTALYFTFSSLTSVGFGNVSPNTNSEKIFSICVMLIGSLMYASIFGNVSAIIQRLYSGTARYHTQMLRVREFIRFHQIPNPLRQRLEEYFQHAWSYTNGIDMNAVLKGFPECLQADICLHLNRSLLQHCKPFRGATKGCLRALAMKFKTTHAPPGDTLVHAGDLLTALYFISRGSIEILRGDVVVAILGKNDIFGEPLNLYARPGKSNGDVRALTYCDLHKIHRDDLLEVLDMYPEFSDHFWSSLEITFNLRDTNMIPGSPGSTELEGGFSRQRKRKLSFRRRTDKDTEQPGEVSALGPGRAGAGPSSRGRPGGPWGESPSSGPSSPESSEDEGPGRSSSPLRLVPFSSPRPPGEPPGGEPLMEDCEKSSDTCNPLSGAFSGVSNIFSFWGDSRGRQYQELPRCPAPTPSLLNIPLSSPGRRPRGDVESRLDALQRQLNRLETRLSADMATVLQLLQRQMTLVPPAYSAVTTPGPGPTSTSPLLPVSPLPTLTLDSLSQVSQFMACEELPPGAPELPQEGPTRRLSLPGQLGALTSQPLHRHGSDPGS

## C[C@@H]1CN(CC(=O)N2CC(C)(C)c3c2cc(Cc2ccc(F)cc2F)c(=O)n3N)[C@@H](CN2CCOC[C@H]2C)CN1.Cl.Cl [Example 23, 4-Amino-6-[(2,4-difluorophenyl)methyl]-3,3-dimethyl-1-{2-[(2R,5R)-5-methyl-2-{[(3R)-3-methylmorpholin-4-yl]methyl}piperazin-1-yl]acetyl}-1H,2H,3H,4H,5H-pyrrolo[3,2-b] pyridin-5-one dihydrochloride]
[1]
  EC50: 0.77 nM
hERG ion channel; @ 100 μM
  hERG PPC (PI): 63% @ 100

## C[C@@H]1CN(CC(=O)N2CC(C)(C)c3c2cc(Cc2ccccc2F)c(=O)n3C)[C@@H](CN2CCOC[C@H]2C)CN1 [Example 9, 6-[(2-Fluorophenyl)methyl]-3,3,4-trimethyl-1-{2-[(2R,5R)-5-methyl-2-{[(3R)-3-methylmorpholin-4-yl]methyl}piperazin-1-yl]acetyl}-1H,2H,3H,4H,5H-pyrrolo[3,2-b]pyridin-5-one dihydrochloride]
[1]
  EC50: 3 nM
hERG ion channel; @ 300 μM
  hERG PPC (PI): 50% @ 300

## C[C@@H]1CN(CC(=O)N2CC(C)(C)c3cc(=O)n(Cc4ccc(F)cc4F)cc32)[C@@H](CN2C[C@H](C)OC[C@H]2C)CN1.Cl.Cl [Example 22, 6-[(2,4-Difluorophenyl)methyl]-1-{2-[(2R,5R)-2-{[(2S,5R)-2,5-dimethylmorpholin-4-yl]methyl}-5-methylpiperazin-1-yl]acetyl}-3,3-dimethyl-1H,2H,3H,5H,6H-pyrrolo[2,3-c]pyridin-5-one dihydrochloride]
[1]
  EC50: 3.9 nM
hERG ion channel; @ 100 μM
  hERG PPC (PI): 47% @ 100

## COC(CO)c1nc2c(cc1Cc1ccc(F)cc1)N(C(=O)CN1C[C@@H](C)NC[C@@H]1CN1CCOC[C@H]1C)CC2(C)C (single isomer, unassigned) [Example 29, 1-{6-[(4-Fluorophenyl)methyl]-5-((R or S)-2-hydroxy-1-methoxyethyl)-3,3-dimethyl-1H,2H,3H-pyrrolo[3,2-b]pyridin-1-yl}-2-[(2R,5R)-5-methyl-2-{[(3R)-3-methylmorpholin-4-yl]methyl}piperazin-1-yl] ethan-1-one]
[1]
  EC50: 13 nM
hERG ion channel; @ 500 μM
  hERG PPC (PI): 53% @ 500

## C[C@@H]1CN(CC(=O)N2CC(C)(C)c3c2cc(Cc2ccc(F)cc2)c(=O)n3N)[C@@H](CN2CCOC[C@H]2C)CN1 [Example 24, 4-Amino-6-[(4-fluorophenyl)methyl]-3,3-dimethyl-1-{2-[(2R,5R)-5-methyl-2-{[(3R)-3-methylmorpholin-4-yl]methyl}piperazin-1-yl]acetyl}-1H,2H,3H,4H,5H-pyrrolo[3,2-b]pyridin-5-one dihydrochloride]
[1]
  EC50: 0.58 nM and 1.1 nM
hERG ion channel; @ 100 μM
  hERG PPC (PI): 40% @ 100

## CCCCc1cc2c([nH]c1=O)C(C)(C)CN2C(=O)CN1C[C@@H](C)NC[C@@H]1CN1[C@H](C)COC[C@H]1C [Example 32, 6-Butyl-1-{2-[(2R,5R)-2-{[(3R,5R)-3,5-dimethylmorpholin-4-yl]methyl}-5-methylpiperazin-1-yl]acetyl}-3,3-dimethyl-1H,2H,3H,4H,5H-pyrrolo[3,2-b]pyridin-5-one dihydrochloride]
[1]
  EC50: 1.5 nM
hERG ion channel; @ 500 μM
  hERG PPC (PI): 55% @ 500

## Cc1c2c(cn(Cc3ccc(F)cc3F)c1=O)N(C(=O)CN1C[C@@H](C)NC[C@@H]1CN1CCOC[C@H]1C)CC2(C)C [Example 31, 6-[(2,4-Difluorophenyl)methyl]-3,3,4-trimethyl-1-{2-[(2R,5R)-5-methyl-2-{[(3R)-3-methylmorpholin-4-yl]methyl}piperazin-1-yl]acetyl}-1H,2H,3H,5H,6H-pyrrolo[2,3-c]pyridin-5-one dihydrochloride]
[1]
  EC50: 0.94 nM and 2.2 nM
hERG ion channel; CHO K1 cells stably transfected with hERG
  IC50: 140000 nM

## C[C@@H]1CN(CC(=O)N2CC(C)(C)c3c2cc(Cc2ccc(F)cc2F)c(=O)n3C)[C@@H](CN2CCOC[C@H]2C)CN1 [Example 19, 6-[(2,4-Difluorophenyl)methyl]-3,3,4-trimethyl-1-{2-[(2R,5R)-5-methyl-2-{[(3R)-3-methylmorpholin-4-yl]methyl}piperazin-1-yl]acetyl}-1H,2H,3H,4H,5H-pyrrolo[3,2-b]pyridin-5-one dihydrochloride]
[1]
  EC50: 1.2 nM
hERG ion channel; @ 100 μM
  hERG PPC (PI): 42% @ 100
